Measurements from paper PMC8772704, “Quantification of Fosfomycin in Combination with Nine Antibiotics in Human Plasma and Cation-Adjusted Mueller-Hinton II Broth via LCMS” (Antibiotics, 2022).

Assays:
[1] = Long-term storage stability of antibiotics in combination with fosfomycin spiked in plasma/CAMHB (−30 °C, −80 °C); type: physicochemical; conditions: for Stability verdict (within ±15% of nominal): CAMHB samples stored at −30 °C; for Mean accuracy (%), Table S15 / Mean accuracy (%), Table S17 / Mean accuracy (%), Table S16 / Mean accuracy (%), Table S18: CAMHB; for Mean accuracy (%), Table S15 / Mean accuracy (%), Table S17 / Mean accuracy (%), Table S16 / Mean accuracy (%), Table S18 / Mean accuracy (%), Table S11 / Mean accuracy (%), Table S13 / Mean accuracy (%), Table S12 / Mean accuracy (%), Table S14: combination with fosfomycin; for Mean accuracy (%), Table S15 / Mean accuracy (%), Table S11: 2 weeks at -30 °C; for Mean accuracy (%), Table S17 / Mean accuracy (%), Table S13: 2 weeks at -80 °C; for Mean accuracy (%), Table S16 / Mean accuracy (%), Table S12: 4 weeks at -30 °C; for Mean accuracy (%), Table S18 / Mean accuracy (%), Table S14: 4 weeks at -80 °C; for Mean accuracy (%), Table S11 / Mean accuracy (%), Table S13 / Mean accuracy (%), Table S12 / Mean accuracy (%), Table S14: plasma
Experimental: (§1) The stability of fosfomycin in combination with other antibiotics in plasma/CAMHB was evaluated under various operational conditions. Spiked plasma/CAMHB samples were evaluated at 7 h and 15 h in the autosampler at 4 °C. Long-term stability was evaluated up to 4 weeks of antibiotic-spiked plasma/CAMHB samples at LQC, MQC, and HQC concentrations stored at −30 °C and −80 °C.

[2] = 32-day stability of stock solutions stored at −80 °C; type: physicochemical; conditions: stock solution stored at -80 °C; peak area Day 32 vs Day 1
Experimental: Stability of stock solutions
All stock solutions of antibiotics and their corresponding stable-isotope variants were measured prior to cold storage at -80 °C and tested at 32 days later.
Stability was determined by comparing the peak area of each drug between its Day 1 and Day 32 measurement. Acceptable criteria for stability was met if the […]

[3] = Autosampler stability at 4 °C of extracted antibiotic-spiked plasma/CAMHB samples; conditions: for Mean accuracy (%), Table S8 / Mean accuracy (%), Table S10: CAMHB extracted samples; for Mean accuracy (%), Table S8 / Mean accuracy (%), Table S7: 7 h autosampler 4 °C; for Mean accuracy (%), Table S10 / Mean accuracy (%), Table S9: 15 h autosampler 4 °C; for Mean accuracy (%), Table S7 / Mean accuracy (%), Table S9: plasma extracted samples
Experimental: as §1

[4] = HQC: nominal mg/L CAZ 150, FEP 200, PIP 250, ATM 300, MEM 200, DOR 175, LVX 30, CEFT 250, TZB 87.5, TGC 20, AVI 30, FOF 1000
[5] = LQC: nominal 1 mg/L (levofloxacin, avibactam 0.5; fosfomycin 10)
[6] = MQC: nominal mg/L CAZ 75, FEP 100, PIP 150, ATM 150, MEM 100, DOR 87.5, LVX 15, CEFT 125, TZB 43.75, TGC 10, AVI 15, FOF 500

C[C@@H](O)[C@H]1C(=O)N2C(C(=O)O)=C(S[C@@H]3CN[C@H](CNS(N)(=O)=O)C3)[C@H](C)[C@H]12 [Doripenem, doripenem]
Stability verdict (within ±15% of nominal) ([1]; 2 weeks): instability
Stability verdict (within ±15% of nominal) ([1]; 4 weeks): instability
Mean accuracy (%), Table S15 ([1]; HQC (nominal as E15)): 82.4%
Mean accuracy (%), Table S15 ([1]; LQC (nominal as E13)): 73.1%
Mean accuracy (%), Table S15 ([1]; MQC (nominal as E14)): 77.1%
Mean accuracy (%), Table S17 ([1]; HQC (nominal as E15)): 100.1%
Mean accuracy (%), Table S17 ([1]; LQC (nominal as E13)): 104.0%
Mean accuracy (%), Table S17 ([1]; MQC (nominal as E14)): 103.9%
Mean accuracy (%), Table S16 ([1]; HQC (nominal as E15)): 64.1%
Mean accuracy (%), Table S16 ([1]; LQC (nominal as E13)): 64.6%
Mean accuracy (%), Table S16 ([1]; MQC (nominal as E14)): 60.6%
Mean accuracy (%), Table S18 ([1]; HQC (nominal as E15)): 105.8%
Mean accuracy (%), Table S18 ([1]; LQC (nominal as E13)): 99.1%
Mean accuracy (%), Table S18 ([1]; MQC (nominal as E14)): 104.7%
Mean accuracy (%), Table S11 ([1]; HQC (nominal as E15)): 98.0%
Mean accuracy (%), Table S11 ([1]; LQC (nominal as E13)): 91.0%
Mean accuracy (%), Table S11 ([1]; MQC (nominal as E14)): 97.0%
Mean accuracy (%), Table S13 ([1]; HQC (nominal as E15)): 98.3%
Mean accuracy (%), Table S13 ([1]; LQC (nominal as E13)): 100.6%
Mean accuracy (%), Table S13 ([1]; MQC (nominal as E14)): 96.9%
Mean accuracy (%), Table S12 ([1]; HQC (nominal as E15)): 102.4%
Mean accuracy (%), Table S12 ([1]; LQC (nominal as E13)): 100.0%
Mean accuracy (%), Table S12 ([1]; MQC (nominal as E14)): 103.1%
Mean accuracy (%), Table S14 ([1]; HQC (nominal as E15)): 106.3%
Mean accuracy (%), Table S14 ([1]; LQC (nominal as E13)): 99.2%
Mean accuracy (%), Table S14 ([1]; MQC (nominal as E14)): 106.9%
32 Day Stability (%) [2]: 99.13%
Mean accuracy (%), Table S8 ([3]; HQC (nominal as E15)): 103.1%
Mean accuracy (%), Table S8 ([3]; LQC (nominal as E13)): 104.8%
Mean accuracy (%), Table S8 ([3]; MQC (nominal as E14)): 105.2%
Mean accuracy (%), Table S10 ([3]; HQC (nominal as E15)): 103.0%
Mean accuracy (%), Table S10 ([3]; LQC (nominal as E13)): 108.0%
Mean accuracy (%), Table S10 ([3]; MQC (nominal as E14)): 111.3%
Mean accuracy (%), Table S7 [3, 4]: 98.9%
Mean accuracy (%), Table S7 [3, 5]: 104.0%
Mean accuracy (%), Table S7 [3, 6]: 100.7%

Cn1c(N)c(NC(=O)NCCN)c[n+]1CC1=C(C(=O)O)N2C(=O)[C@@H](NC(=O)/C(=N\OC(C)(C)C(=O)[O-])c3nsc(N)n3)[C@H]2SC1 [Ceftolozane, ceftolozane]
Mean accuracy (%), Table S15 ([1]; HQC (nominal as E15)): 93.2%
Mean accuracy (%), Table S15 ([1]; LQC (nominal as E13)): 91.3%
Mean accuracy (%), Table S15 ([1]; MQC (nominal as E14)): 94.7%
Mean accuracy (%), Table S17 ([1]; HQC (nominal as E15)): 94.1%
Mean accuracy (%), Table S17 ([1]; LQC (nominal as E13)): 91.4%
Mean accuracy (%), Table S17 ([1]; MQC (nominal as E14)): 94.3%
Mean accuracy (%), Table S16 ([1]; HQC (nominal as E15)): 90.8%
Mean accuracy (%), Table S16 ([1]; LQC (nominal as E13)): 86.1%
Mean accuracy (%), Table S16 ([1]; MQC (nominal as E14)): 90.4%
Mean accuracy (%), Table S18 ([1]; HQC (nominal as E15)): 93.9%
Mean accuracy (%), Table S18 ([1]; LQC (nominal as E13)): 87.5%
Mean accuracy (%), Table S18 ([1]; MQC (nominal as E14)): 96.2%
Mean accuracy (%), Table S11 ([1]; HQC (nominal as E15)): 86.5%
Mean accuracy (%), Table S11 ([1]; LQC (nominal as E13)): 86.9%
Mean accuracy (%), Table S11 ([1]; MQC (nominal as E14)): 86.4%
Mean accuracy (%), Table S13 ([1]; HQC (nominal as E15)): 86.3%
Mean accuracy (%), Table S13 ([1]; LQC (nominal as E13)): 91.1%
Mean accuracy (%), Table S13 ([1]; MQC (nominal as E14)): 87.7%
Mean accuracy (%), Table S12 ([1]; HQC (nominal as E15)): 99.3%
Mean accuracy (%), Table S12 ([1]; LQC (nominal as E13)): 99.0%
Mean accuracy (%), Table S12 ([1]; MQC (nominal as E14)): 98.6%
Mean accuracy (%), Table S14 ([1]; HQC (nominal as E15)): 100.8%
Mean accuracy (%), Table S14 ([1]; LQC (nominal as E13)): 89.3%
Mean accuracy (%), Table S14 ([1]; MQC (nominal as E14)): 98.0%
32 Day Stability (%) [2]: 107.69%
Mean accuracy (%), Table S8 ([3]; HQC (nominal as E15)): 113.3%
Mean accuracy (%), Table S8 ([3]; LQC (nominal as E13)): 106.4%
Mean accuracy (%), Table S8 ([3]; MQC (nominal as E14)): 109.8%
Mean accuracy (%), Table S10 ([3]; HQC (nominal as E15)): 112.0%
Mean accuracy (%), Table S10 ([3]; LQC (nominal as E13)): 107.2%
Mean accuracy (%), Table S10 ([3]; MQC (nominal as E14)): 111.3%
Mean accuracy (%), Table S7 [3, 4]: 105.1%
Mean accuracy (%), Table S7 [3, 5]: 106.0%
Mean accuracy (%), Table S7 [3, 6]: 97.2%
Mean accuracy (%), Table S9 ([3]; HQC (nominal as E15)): 101.0%
Mean accuracy (%), Table S9 ([3]; LQC (nominal as E13)): 97.5%
Mean accuracy (%), Table S9 ([3]; MQC (nominal as E14)): 90.0%
